According to patent US9969700B2, “P2X4 receptor antagonist” (NIPPON CHEMIPHAR CO., LTD, priority 2012, dated 2018):
Where a name gives a salt, the structure may show the parent alone.

Molecular target: human P2X4 receptor (Homo sapiens (Human), UniProt Q99571)
Assay: P2X4 receptor antagonist activity (ATP-induced intracellular calcium, Fura-2 AM)
Type: cell-based
Conditions: 1321N1 cells stably expressing human P2X4 receptor; test substance 15 minutes before ATP; read-out: Inhibitory activity IC50

human P2X4 receptor, sequence (Q99571 whole entry): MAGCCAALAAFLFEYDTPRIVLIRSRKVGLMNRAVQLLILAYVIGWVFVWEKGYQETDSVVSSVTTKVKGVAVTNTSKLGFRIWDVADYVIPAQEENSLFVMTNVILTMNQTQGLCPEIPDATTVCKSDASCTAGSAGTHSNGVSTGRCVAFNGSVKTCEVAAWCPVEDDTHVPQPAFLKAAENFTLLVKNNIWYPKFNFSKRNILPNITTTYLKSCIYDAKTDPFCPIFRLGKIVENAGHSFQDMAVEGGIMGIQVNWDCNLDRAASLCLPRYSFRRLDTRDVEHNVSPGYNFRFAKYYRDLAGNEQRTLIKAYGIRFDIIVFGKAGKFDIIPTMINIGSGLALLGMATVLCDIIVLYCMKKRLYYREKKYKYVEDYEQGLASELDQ

SMILES | IC50 [µM]
O=C(Cc1ccccc1Cl)Nc1ccc(N2C(=O)CC(=O)Nc3c2ccc2ccccc32)cc1 [Example 13, 5-[4-[(2-Chlorophenylacetyl)amino]phenyl]-1H-naphtho[1,2-b][1,4]diazepine-2,4(3H,5H)-dione] | 0.54
O=C1CN=C(c2ccc(NS(=O)(=O)Cc3ccccc3Cl)cc2)c2ccc3ccccc3c2N1 [Example 197, 1-(2-Chlorophenyl)-N-[4-(2-oxo-2,3-dihydro-1H-naphtho[1,2-e][1,4]diazepin-5-yl)phenyl]methanesulfonamide] | 0.44
O=C1CC(=O)N(c2ccc(NC(=O)c3c(O)cccc3Cl)cc2)c2ccc3ccccc3c2N1 [Example 118, 5-[4-(6-Chloro-2-hydroxybenzoylamino)phenyl]-1H-naphtho[1,2-b][1,4]diazepine-2,4(3H,5H)-dione] | 1.1
O=C1CC(=O)N(c2ccc(NC(=O)Nc3ccccc3)cc2)c2ccc3ccccc3c2N1 [Example 20, 1-[4-(2,4-Dioxo-1,2,3,4-tetrahydronaphtho[1,2-b][1,4]diazepin-5-yl)phenyl]-3-phenylurea] | 1.2
CN(c1ccc(N2C(=O)CC(=O)Nc3c2ccc2c3CCCC2)cc1)S(=O)(=O)Cc1ccccc1Cl [Example 196, 1-(2-Chlorophenyl)-N-[4-(2,4-dioxo-1,2,3,4,8,9,10,11-octahydronaphtho[1,2-b][1,4]diazepin-5-yl)phenyl]-N-methylmethanesulfonamide] | 0.97
O=C(COc1ccccn1)Nc1ccc(N2C(=O)CC(=O)Nc3c2ccc2ccccc32)cc1 [Example 210, 5-[4-[2-[(Pyridin-2-yl)oxy]acetylamino]phenyl]-1H-naphtho[1,2-b][1,4]diazepine-2,4(3H,5H)-dione] | 1.4
O=C1CC(=O)N(c2ccc(NC(=O)c3cccnc3Cl)cc2)c2ccc3ccccc3c2N1 [Example 209, 5-[4-[(2-Chloropyridin-3-yl)carbonylamino]phenyl]-1H-naphtho[1,2-b][1,4]diazepine-2,4(3H,5H)-dione] | 0.94
Cc1ncccc1C(=O)Nc1ccc(N2C(=O)CC(=O)Nc3c2ccc2ccccc32)cc1 [Example 208, 5-[4-[(2-Methylpyridin-3-yl)carbonylamino]phenyl]-1H-naphtho[1,2-b][1,4]diazepine-2,4(3H,5H)-dione hydrochloride] | 1.3

Test system: Neurogenic pain model (modified Chung model)
Assay: Analgesic activity, von Frey filament test in neurogenic pain model (modified Chung model)
Type: in vivo
Conditions: rats, oral administration of 50 mg/kg, day 9 after the modified Chung operation; significant difference compared with vehicle group
Experimental: Neurogenic pain model (modified Chung model) was prepared according to the description of Non-patent document 9. More specifically, under isoflurane anesthesia, back hair of rats was extensively shaved, the shaved parts were wiped with rubbing alcohol, the rate were fixed on an incubator in the abdominal position, and the skins were cut and opened along the dorsal median line on the upper and lower sides of the sacroiliac bone. The left lateral paravertebral muscle was separated in the sacral region, and then the ligament was separated. The sacroiliae rim and the upper part thereof were cut and opened along the pyramid, the L5 nerve was ligated, and the nerve was cut on the peripheral side. […]
The pain threshold value (paw withdrawal threshold (g)) was calculated according to the up down method by stimulating the sole with a von Frey filament (Stoelting Co., TOUCH-TEST SENSORY EVALUATOR) and determining presence or absence of withdrawal response.
As the von Frey filaments, seven filaments giving different stimulation strengths were used. The 50% threshold value was calculated according to the up down method by referring to the method of Chaplan et al. (Chaplan S R, Bach F W, Pogrel J W, Chung J M, Yaksh T L.: Quantitative assessment of tactile allodynia in the rat paw, J. Neurosci. Methods, 53:55-63 (1994). […]

SMILES | pain threshold value (paw withdrawal threshold) of the diseased limb
O=C1CC(=O)N(c2ccc(NC(=O)c3ccccc3I)cc2)c2ccc3ccccc3c2N1 [Example 48, 5-[4-(2-Iodobenozoylamino)phenyl]-1H-naphtho[1,2-b][1,4]diazepine-2,4(3H,5H)-dione] | raised the pain threshold value of the diseased limb
O=C1CC(=O)N(c2ccc(NC(=O)c3c(O)cccc3Cl)cc2)c2ccc3ccccc3c2N1 [Example 118, 5-[4-(6-Chloro-2-hydroxybenzoylamino)phenyl]-1H-naphtho[1,2-b][1,4]diazepine-2,4(3H,5H)-dione] | raised the pain threshold value of the diseased limb
